Measurements as given in patent US5137892A, “Quinoline, naphthyridine and pyridobenzoxazine derivatives” (Abbott Laboratories, priority 1990, dated 1992).
≈ marks a conversion by molar mass, not a printed value.

How the values were obtained:
Type in all cases: cell-based
Pseudomonas cepacia 2961 = experiment: In Vitro Antibacterial Activity, agar dilution MIC; conditions: P. cepacia 2961; BHI agar dilution, 20-24 hours; unit assumed
Method: (§1) The activity of the compounds of the present invention was tested against a wide variety of bacteria using standard assay procedures. Minimum inhibitory concentrations (MICs) were determined by the agar dilution method, described below, using Brain Heart Infusion agar.
(§2) Twelve petri dishes were prepared, each containing successive aqueous 2-fold dilutions of the test compounds mixed with 10 mL of sterilized Brain Heart Infusion (BHI) agar. Each plate was inoculated with 100-fold (or 10-fold, for slow-growing strains such as Micrococcus and Streptococcus) dilutions of up to 32 different microorganisms using a Steers replicator block calibrated to deliver approximately 10^4 colony forming units (CFUs). The inoculated plates were incubated at about 35°-37° C. for approximately 20-24 hours. In addition, a control plate, using BHI agar containing no test compound, was prepared and incubated at the beginning and at the end of each test. Ciprofloxacin was used as the reference antibiotic.
(§3) The MIC was defined as the lowest concentration of test compound yielding no growth (a slight haze or sparsely isolated colonies at the inoculum spot as compared to the growth control contaning no test compound.

Acinetobacter SP CMX 699 = experiment: In Vitro Antibacterial Activity, agar dilution MIC; conditions: BHI agar dilution, 20-24 hours, unit assumed
Method: as §1, §2, §3

[1] = test system: Streptococcus bovis A5169; experiment: In Vitro Antibacterial Activity, agar dilution MIC; conditions: S. bovis A5169; BHI agar dilution, 20-24 hours; unit assumed
Method: as §1, §2, §3

Escherichia coli DC-2 = experiment: In Vitro Antibacterial Activity, agar dilution MIC; conditions: E. coli DC-2; BHI agar dilution, 20-24 hours; unit assumed
Method: as §1, §2, §3

[2] = test system: Enterococcus faecium ATCC 8043; experiment: In Vitro Antibacterial Activity, agar dilution MIC; conditions: E. faecium ATCC 8043; BHI agar dilution, 20-24 hours; unit assumed
Method: as §1, §2, §3

[3] = test system: Streptococcus pyogenes 2548 INDUC; experiment: In Vitro Antibacterial Activity, agar dilution MIC; conditions: S. pyogenes 2548 INDUC; BHI agar dilution, 20-24 hours; unit assumed
Method: as §1, §2, §3

[4] = test system: Pseudomonas aeruginosa K799/WT; experiment: In Vitro Antibacterial Activity, agar dilution MIC; conditions: P. aeruginosa K799/WT; BHI agar dilution, 20-24 hours; unit assumed
Method: as §1, §2, §3

[5] = test system: Staphylococcus aureus ATCC 6538P; experiment: In Vitro Antibacterial Activity, agar dilution MIC; conditions: S. aureus ATCC 6538P; BHI agar dilution, 20-24 hours; unit assumed
Method: as §1, §2, §3

[6] = test system: Staphylococcus aureus A5177; experiment: In Vitro Antibacterial Activity, agar dilution MIC; conditions: S. aureus A5177; BHI agar dilution, 20-24 hours; unit assumed
Method: as §1, §2, §3

[7] = test system: Pseudomonas aeruginosa 5263; experiment: In Vitro Antibacterial Activity, agar dilution MIC; conditions: P. aeruginosa 5263; BHI agar dilution, 20-24 hours; unit assumed
Method: as §1, §2, §3

[8] = test system: Staphylococcus epidermidis 3519; experiment: In Vitro Antibacterial Activity, agar dilution MIC; conditions: S. epidermidis 3519; BHI agar dilution, 20-24 hours; unit assumed
Method: as §1, §2, §3

[9] = test system: Staphylococcus aureus NCTC 10649; experiment: In Vitro Antibacterial Activity, agar dilution MIC; conditions: S. aureus NCTC 10649; BHI agar dilution, 20-24 hours; unit assumed
Method: as §1, §2, §3

Escherichia coli KNK 437 = experiment: In Vitro Antibacterial Activity, agar dilution MIC; conditions: E. coli KNK 437; BHI agar dilution, 20-24 hours; unit assumed
Method: as §1, §2, §3

[10] = test system: Pseudomonas aeruginosa 2862; experiment: In Vitro Antibacterial Activity, agar dilution MIC; conditions: P. aeruginosa 2862; BHI agar dilution, 20-24 hours; unit assumed
Method: as §1, §2, §3

[11] = test system: Streptococcus pyogenes 930 CONST; experiment: In Vitro Antibacterial Activity, agar dilution MIC; conditions: S. pyogenes 930 CONST; BHI agar dilution, 20-24 hours; unit assumed
Method: as §1, §2, §3

Escherichia coli JUHL = experiment: In Vitro Antibacterial Activity, agar dilution MIC; conditions: E. coli JUHL; BHI agar dilution, 20-24 hours; unit assumed
Method: as §1, §2, §3

[12] = test system: Streptococcus pyogenes EES61; experiment: In Vitro Antibacterial Activity, agar dilution MIC; conditions: S. pyogenes EES61; BHI agar dilution, 20-24 hours; unit assumed
Method: as §1, §2, §3

[13] = test system: Staphylococcus aureus CMX 553; experiment: In Vitro Antibacterial Activity, agar dilution MIC; conditions: S. aureus CMX 553; BHI agar dilution, 20-24 hours; unit assumed
Method: as §1, §2, §3

[14] = test system: Staphylococcus aureus A-5278; experiment: In Vitro Antibacterial Activity, agar dilution MIC; conditions: S. aureus A-5278; BHI agar dilution, 20-24 hours; unit assumed
Method: as §1, §2, §3

Staphylococcus aureus 45 = experiment: In Vitro Antibacterial Activity, agar dilution MIC; conditions: S. aureus 45; BHI agar dilution, 20-24 hours; unit assumed
Method: as §1, §2, §3

[15] = test system: Pseudomonas aeruginosa BMH10; experiment: In Vitro Antibacterial Activity, agar dilution MIC; conditions: P. aeruginosa BMH10; BHI agar dilution, 20-24 hours; unit assumed
Method: as §1, §2, §3

Escherichia coli H560 = experiment: In Vitro Antibacterial Activity, agar dilution MIC; conditions: E. coli H560; BHI agar dilution, 20-24 hours; unit assumed
Method: as §1, §2, §3

[16] = test system: Providencia stuartii CMX 640; experiment: In Vitro Antibacterial Activity, agar dilution MIC; conditions: P. stuartii CMX 640; BHI agar dilution, 20-24 hours; unit assumed
Method: as §1, §2, §3

[17] = test system: Micrococcus luteus ATCC 4698; experiment: In Vitro Antibacterial Activity, agar dilution MIC; conditions: M. luteus ATCC 4698; BHI agar dilution, 20-24 hours; unit assumed
Method: as §1, §2, §3

[18] = test system: Streptococcus agalactaciae CMX 508; experiment: In Vitro Antibacterial Activity, agar dilution MIC; conditions: S. agalactaciae CMX 508; BHI agar dilution, 20-24 hours; unit assumed
Method: as §1, §2, §3

[19] = test system: Klebsiella pneumoniae ATCC 8045; experiment: In Vitro Antibacterial Activity, agar dilution MIC; conditions: K. pneumoniae ATCC 8045; BHI agar dilution, 20-24 hours; unit assumed
Method: as §1, §2, §3

[20] = test system: Pseudomonas aeruginosa A5007; experiment: In Vitro Antibacterial Activity, agar dilution MIC; conditions: P. aeruginosa A5007; BHI agar dilution, 20-24 hours; unit assumed
Method: as §1, §2, §3

[21] = test system: Staphylococcus aureus 1775; experiment: In Vitro Antibacterial Activity, agar dilution MIC; conditions: S. aureus 1775; BHI agar dilution, 20-24 hours; unit assumed
Method: as §1, §2, §3

[22] = test system: Micrococcus luteus ATCC 9341; experiment: In Vitro Antibacterial Activity, agar dilution MIC; conditions: M. luteus ATCC 9341; BHI agar dilution, 20-24 hours; unit assumed
Method: as §1, §2, §3

[23] = test system: Staphylococcus aureus 642A; experiment: In Vitro Antibacterial Activity, agar dilution MIC; conditions: S. aureus 642A; BHI agar dilution, 20-24 hours; unit assumed
Method: as §1, §2, §3

[24] = test system: Enterobacter aerogenes ATCC 13048; experiment: In Vitro Antibacterial Activity, agar dilution MIC; conditions: E. aerogenes ATCC 13048; BHI agar dilution, 20-24 hours; unit assumed
Method: as §1, §2, §3

Escherichia coli SS = experiment: In Vitro Antibacterial Activity, agar dilution MIC; conditions: E. coli SS; BHI agar dilution, 20-24 hours; unit assumed
Method: as §1, §2, §3

[25] = test system: Pseudomonas aeruginosa K599/61; conditions: P. aeruginosa K599/61; BHI agar dilution, 20-24 hours; unit assumed
Method: as §1, §2, §3

SMILES: O=C(O)c1cn(C2CC2)c2cc(N3CCNCC3)c(F)cc2c1=O [Cipro, Ciprofloxacin, reference compound]
- MIC values (Pseudomonas cepacia 2961): 3.1 µg/mL (≈ 9.36 µM)
- MIC values (Acinetobacter SP CMX 699): 0.39 µg/mL (≈ 1.18 µM)
- MIC values [1]: 1.56 µg/mL (≈ 4.71 µM)
- MIC values (Escherichia coli DC-2): 0.2 µg/mL (≈ 0.604 µM)
- MIC values [2]: 0.39 µg/mL (≈ 1.18 µM)
- MIC values [3]: 0.39 µg/mL (≈ 1.18 µM)
- MIC values [4]: 0.1 µg/mL (≈ 0.302 µM)
- MIC values [5]: 0.2 µg/mL (≈ 0.604 µM)
- MIC values [6]: 0.39 µg/mL (≈ 1.18 µM)
- MIC values [7]: 12.5 µg/mL (≈ 37.7 µM)
- MIC values [8]: 0.2 µg/mL (≈ 0.604 µM)
- MIC values [9]: 0.39 µg/mL (≈ 1.18 µM)
- MIC values (Escherichia coli KNK 437): 0.2 µg/mL (≈ 0.604 µM)
- MIC values [10]: 25 µg/mL (≈ 75.4 µM)
- MIC values [11]: 0.78 µg/mL (≈ 2.35 µM)
- MIC values (Escherichia coli JUHL): 0.02 µg/mL (≈ 0.0604 µM)
- MIC values [12]: 0.39 µg/mL (≈ 1.18 µM)
- MIC values [13]: 0.78 µg/mL (≈ 2.35 µM)
- MIC values [14]: 0.39 µg/mL (≈ 1.18 µM)
- MIC values (Staphylococcus aureus 45): 0.78 µg/mL (≈ 2.35 µM)
- MIC values [15]: 0.05 µg/mL (≈ 0.151 µM)
- MIC values (Escherichia coli H560): 0.01 µg/mL (≈ 0.0302 µM)
- MIC values [16]: 0.78 µg/mL (≈ 2.35 µM)
- MIC values [17]: 0.78 µg/mL (≈ 2.35 µM)
- MIC values [18]: 0.39 µg/mL (≈ 1.18 µM)
- MIC values [19]: 0.02 µg/mL (≈ 0.0604 µM)
- MIC values [20]: 0.1 µg/mL (≈ 0.302 µM)
- MIC values [21]: > 100 µg/mL
- MIC values [22]: 1.56 µg/mL (≈ 4.71 µM)
- MIC values [23]: 0.39 µg/mL (≈ 1.18 µM)
- MIC values [24]: 0.05 µg/mL (≈ 0.151 µM)
- MIC values (Escherichia coli SS): 0.005 µg/mL (≈ 0.0151 µM)
- MIC values [25]: 0.02 µg/mL (≈ 0.0604 µM)
